In US20160297833A1, “THIENOPYRIMIDINES AS MKNK1 AND MKNK2 INHIBITORS” (BAYER PHARMA AKTIENGESELLSCHAFT, priority 2013, published 2016):

Target: T1, human full-length MKNK1 (Homo sapiens, UniProt Q9BUB5, T385D)
T1 construct: GST (N); purchased Carna Biosciences 02-145; host or cells: insect cells (baculovirus expression system)
Assay: MKNK1 kinase high ATP assay (TR-FRET)
Format: biochemical
Settings: Table 1; MKNK1 kinase high ATP assay, 2 mM ATP; read-out: MKNK1 IC50
Method: MKNK1 Kinase High ATP Assay
MKNK1-inhibitory activity at high ATP of compounds of the present invention after their preincubation with MKNK1 was quantified employing the TR-FRET-based MKNK1 high ATP assay as described in the following paragraphs.
As substrate for the kinase reaction the biotinylated peptide biotin-Ahx-[…] (C-terminus in amide form) was used, which can be purchased e.g. from the company Biosyntan (Berlin-Buch, Germany).
For the assay 50 nL of a 100 fold concentrated solution of the test compound in DMSO was pipetted into a black low volume 384 well microtiter plate (Greiner Bio-One, Frickenhausen, Germany), 2 μL of a solution of MKNK1 in aqueous assay buffer [50 mM HEPES pH 7.5, 5 mM MgCl2, 1.0 mM dithiothreitol, 0.005% (v/v) Nonidet-P40 (Sigma)] was added and the mixture was incubated for 15 min at 22° C. to allow pre-binding of the test compounds to the enzyme before the start of the kinase reaction. Then the kinase reaction was started by the addition of 3 μL of a solution of adenosine-tri-phosphate (ATP, 3.3 mM=>final conc. in the 5 μL assay volume is 2 mM) and substrate (0.1 μM=>final conc. in the 5 μL assay volume is 0.06 μM) in assay buffer and the resulting mixture was incubated for a reaction time of 30 min at 22° C. The concentration of MKNK1 was adjusted depending of the activity of the enzyme lot and was chosen appropriate to have the assay in the linear range, typical concentrations were in the range of 0.003 μg/mL. The reaction was stopped by the addition of 5 μL of a solution of TR-FRET detection reagents (5 nM streptavidine-XL665 [Cisbio Bioassays, Codolet, France] and 1 nM anti-ribosomal protein S6 (pSer236)-antibody from Invitrogen [#44921G] and 1 nM LANCE EU-W1024 labeled ProteinG [Perkin-Elmer, product no. AD0071]) in an aqueous EDTA-solution (100 mM EDTA, 0.1% (w/v) bovine serum albumin in 50 mM HEPES pH 7.5).
The resulting mixture was incubated for 1 h at 22° C. to allow the formation of complex between the phosphorylated biotinylated peptide and the detection reagents. Subsequently the amount of phosphorylated substrate was evaluated by measurement of the resonance energy transfer from the Eu-chelate to the streptavidine-XL. Therefore, the fluorescence emissions at 620 nm and 665 nm after excitation at 350 nm were measured in a TR-FRET reader, e.g. a Rubystar (BMG Labtechnologies, Offenburg, Germany) or a Viewlux (Perkin-Elmer). The ratio of the emissions at 665 nm and at 622 nm was taken as the measure for the amount of phosphorylated substrate.

T1 sequence (Q9BUB5 1-424 isoform Q9BUB5-2 T344D): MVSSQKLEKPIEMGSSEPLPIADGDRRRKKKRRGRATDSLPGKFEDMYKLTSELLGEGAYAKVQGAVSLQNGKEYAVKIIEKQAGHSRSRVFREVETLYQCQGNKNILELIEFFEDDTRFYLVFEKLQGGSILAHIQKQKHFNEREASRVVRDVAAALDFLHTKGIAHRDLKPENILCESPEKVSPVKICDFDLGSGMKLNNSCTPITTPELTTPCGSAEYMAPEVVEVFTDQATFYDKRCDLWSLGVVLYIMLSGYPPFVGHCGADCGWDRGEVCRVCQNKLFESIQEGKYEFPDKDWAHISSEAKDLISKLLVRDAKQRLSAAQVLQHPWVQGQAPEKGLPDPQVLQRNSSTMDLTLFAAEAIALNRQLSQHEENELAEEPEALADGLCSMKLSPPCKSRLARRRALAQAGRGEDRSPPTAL

Structure (SMILES)	IC50
CCN(CCO)C(=O)[C@@H]1CCc2c(sc3ncnc(Nc4cc5cn[nH]c5cc4OC)c23)C1 [Example 41, (7R)—N-Ethyl-N-(2-hydroxyethyl)-4-[(6-methoxy-1H-indazol-5-yl)amino]-5,6,7,8-tetrahydro[1]benzothieno[2,3-d]pyrimidine-7-carboxamide]	10.5 nM
C[C@H](CN)Oc1cc2[nH]ncc2cc1Nc1ncnc2sc3c(c12)CC[C@H](C(=O)N(C)C)C3 [Example 152, (7S)-4-[(6-{[(2R)-1-Aminopropan-2-yl]oxy}-1H-indazol-5-yl)amino]-N,N-dimethyl-5,6,7,8-tetrahydro[1]benzothieno[2,3-d]pyrimidine-7-carboxamide]	0.6 nM
COCCN(C)C(=O)[C@H]1CCc2c(sc3ncnc(Nc4cc5cn[nH]c5cc4Cl)c23)C1 [Example 230, (7S)-4-[(6-Chloro-1H-indazol-5-yl)amino]-N-(2-methoxyethyl)-N-methyl-5,6,7,8-tetrahydro[1]benzothieno[2,3-d]pyrimidine-7-carboxamide]	2.5 nM
C[C@@H]1CN(C(=O)[C@H]2CCc3c(sc4ncnc(Nc5cc6cn[nH]c6cc5N5CCCC5)c34)C2)C[C@H](C)O1 [Example 183, [(2R,6S)-2,6-Dimethylmorpholin-4-yl][(7S)-4-{[6-(pyrrolidin-1-yl)-1H-indazol-5-yl]amino}-5,6,7,8-tetrahydro[1]benzothieno[2,3-d]pyrimidin-7-yl]methanone]	0.7 nM
CCCN(C)C(=O)[C@H]1CCc2c(sc3ncnc(Nc4cc5cn[nH]c5cc4N4CCC(N(C)C)CC4)c23)C1 [Example 156, (7S)-4-({6-[4-(Dimethylamino)piperidin-1-yl]-1H-indazol-5-yl}amino)-N-methyl-N-propyl-5,6,7,8-tetrahydro[1]benzothieno[2,3-d]pyrimidine-7-carboxamide]	10.7 nM
COc1cc2[nH]ncc2cc1Nc1ncnc2sc3c(c12)CC[C@@H](C(=O)N(C)CCO)C3 [Example 39, (7R)—N-(2-Hydroxyethyl)-4-[(6-methoxy-1H-indazol-5-yl)amino]-N-methyl-5,6,7,8-tetrahydro[1]benzothieno[2,3-d]pyrimidine-7-carboxamide]	9.4 nM
CN(C)C(=O)[C@H]1CCc2c(sc3ncnc(Nc4cc5cn[nH]c5cc4OCCN4CCOC4=O)c23)C1 [Example 194, (7S)—N,N-Dimethyl-4-({6-[2-(2-oxo-1,3-oxazolidin-3-yl)ethoxy]-1H-indazol-5-yl}amino)-5,6,7,8-tetrahydro[1]benzothieno[2,3-d]pyrimidine-7-carboxamide]	44.3 nM
CCCOc1cc2[nH]ncc2cc1Nc1ncnc2sc3c(c12)CC[C@H](C(=O)N(C)C)C3 [Example 94, (7S)—N,N-Dimethyl-4-[(6-propoxy-1H-indazol-5-yl)amino]-5,6,7,8-tetrahydro[1]benzothieno[2,3-d]pyrimidine-7-carboxamide]	4.8 nM
CN(C)C(=O)[C@H]1CCc2c(sc3ncnc(Nc4cc5cn[nH]c5cc4OCC(C)(C)C)c23)C1 [Example 176, (7S)-4-{[6-(2,2-Dimethylpropoxy)-1H-indazol-5-yl]amino}-N,N-dimethyl-5,6,7,8-tetrahydro[1]benzothieno[2,3-d]pyrimidine-7-carboxamide]	39.8 nM
CSc1cc2[nH]ncc2cc1Nc1ncnc2sc3c(c12)CC[C@H](C(=O)N(C)C(C)C)C3 [Example 251, (7S)—N-Methyl-4-{[6-(methylsulfanyl)-1H-indazol-5-yl]amino}-N-(propan-2-yl)-5,6,7,8-tetrahydro[1]benzothieno[2,3-d]pyrimidine-7-carboxamide]	1.5 nM
CSc1cc2[nH]ncc2cc1Nc1ncnc2sc3c(c12)CC[C@H](C(=O)N(C)C)C3 [Example 106, (7S)—N,N-Dimethyl-4-{[6-(methylsulfanyl)-1H-indazol-5-yl]amino}-5,6,7,8-tetrahydro[1]benzothieno[2,3-d]pyrimidine-7-carboxamide]	4.6 nM
CN(C)C(=O)[C@H]1CCc2c(sc3ncnc(Nc4cc5cn[nH]c5cc4Br)c23)C1 [Example 181, (7S)-4-[(6-Bromo-1H-indazol-5-yl)amino]-N,N-dimethyl-5,6,7,8-tetrahydro[1]benzothieno[2,3-d]pyrimidine-7-carboxamide]	3.6 nM
CN(C)C(=O)[C@H]1CCc2c(sc3ncnc(Nc4cc5cn[nH]c5cc4OCCN4CCCC4=O)c23)C1 [Example 193, (7S)—N,N-Dimethyl-4-({6-[2-(2-oxopyrrolidin-1-yl)ethoxy]-1H-indazol-5-yl}amino)-5,6,7,8-tetrahydro[1]benzothieno[2,3-d]pyrimidine-7-carboxamide]	222 nM
CSc1cc2[nH]ncc2cc1Nc1ncnc2sc3c(c12)CC[C@H](C(=O)N1CCOCC1)C3 [Example 255, [(7S)-4-{[6-(Methylsulfanyl)-1H-indazol-5-yl]amino}-5,6,7,8-tetrahydro[1]benzothieno[2,3-d]pyrimidin-7-yl](morpholin-4-yl)methanone]	2 nM

Stronger by IC50, values ahead:

IC50	Structure (SMILES)
0.3 nM	C[C@H]1CN(C(=O)[C@H]2CCc3c(sc4ncnc(Nc5cc6cn[nH]c6cc5N(C)C)c34)C2)C[C@H](C)O1 [Example 239, [(7S)-4-{[6-(Dimethylamino)-1H-indazol-5-yl]amino}-5,6,7,8-tetrahydro[1]benzothieno[2,3-d]pyrimidin-7-yl][(2S,6S)-2,6-dimethylmorpholin-4-yl]methanone]
0.3 nM	COCCN(CCO)C(=O)[C@H]1CCc2c(sc3ncnc(Nc4cc5cn[nH]c5cc4OC)c23)C1 [Example 42, (7S)—N-(2-Hydroxyethyl)-N-(2-methoxyethyl)-4-[(6-methoxy-1H-indazol-5-yl)amino]-5,6,7,8-tetrahydro[1]benzothieno[2,3-d]pyrimidine-7-carboxamide]
0.2 nM	COc1cc2[nH]ncc2cc1Nc1ncnc2sc3c(c12)CC[C@H](C(=O)N1CCSCC1)C3 [Example 207, {(7S)-4-[(6-methoxy-1H-indazol-5-yl)amino]-5,6,7,8-tetrahydro[1]benzothieno[2,3-d]pyrimidin-7-yl}(thiomorpholin-4-yl)methanone]
0.2 nM	COc1cc2[nH]ncc2cc1Nc1ncnc2sc3c(c12)CC[C@H](C(=O)N(C)CC(=O)N(C)C)C3 [Example 52, (7S)—N-[2-(Dimethylamino)-2-oxoethyl]-4-[(6-methoxy-1H-indazol-5-yl)amino]-N-methyl-5,6,7,8-tetrahydro[1]benzothieno[2,3-d]pyrimidine-7-carboxamide]
0.4 nM	CCOc1cc2[nH]ncc2cc1Nc1ncnc2sc3c(c12)CC[C@H](C(=O)N1C[C@@H]2C[C@H]1CO2)C3 [Example 70, {(7S)-4-[(6-Ethoxy-1H-indazol-5-yl)amino]-5,6,7,8-tetrahydro[1]benzothieno[2,3-d]pyrimidin-7-yl}[(1S,4S)-2-oxa-5-azabicyclo[2.2.1]hept-5-yl]methanone]
0.2 nM	C[C@@H]1COCCN1C(=O)[C@H]1CCc2c(sc3ncnc(Nc4cc5cn[nH]c5cc4N(C)C)c23)C1 [Example 187, [(7S)-4-{[6-(Dimethylamino)-1H-indazol-5-yl]amino}-5,6,7,8-tetrahydro[1]benzothieno[2,3-d]pyrimidin-7-yl][(3R)-3-methylmorpholin-4-yl]methanone]
0.4 nM	COc1cc2[nH]ncc2cc1Nc1ncnc2sc3c(c12)CC[C@H](C(=O)N1CCN(C)CC1)C3 [Example 48, {(7S)-4-[(6-Methoxy-1H-indazol-5-yl)amino]-5,6,7,8-tetrahydro[1]benzothieno[2,3-d]pyrimidin-7-yl}(4-methylpiperazin-1-yl)methanone]
0.2 nM	CCOC(=O)NCCOc1cc2[nH]ncc2cc1Nc1ncnc2sc3c(c12)CC[C@H](C(=O)N(C)C)C3 [Example 262, Ethyl {2-[(5-{[(7S)-7-(dimethylcarbamoyl)-5,6,7,8-tetrahydro[1]benzothieno[2,3-d]pyrimidin-4-yl]amino}-1H-indazol-6-yl)oxy]ethyl}carbamate]
0.3 nM	COc1cc2[nH]ncc2cc1Nc1ncnc2sc3c(c12)CC[C@H](C(=O)N(C)CCO)C3 [Example 38, (7S)—N-(2-Hydroxyethyl)-4-[(6-methoxy-1H-indazol-5-yl)amino]-N-methyl-5,6,7,8-tetrahydro[1]benzothieno[2,3-d]pyrimidine-7-carboxamide]

Same assay, conditions: Table 2; ratio of the IC50-value of an R-enantiomer and its corresponding S-enantiomer

Activity-Ratio MKNK1	Structure (SMILES)
33.2	COCCN(CCO)C(=O)[C@H]1CCc2c(sc3ncnc(Nc4cc5cn[nH]c5cc4OC)c23)C1 [Example 42, (7S)—N-(2-Hydroxyethyl)-N-(2-methoxyethyl)-4-[(6-methoxy-1H-indazol-5-yl)amino]-5,6,7,8-tetrahydro[1]benzothieno[2,3-d]pyrimidine-7-carboxamide]
28.1	COc1cc2[nH]ncc2cc1Nc1ncnc2sc3c(c12)CC[C@H](C(=O)N(C)CCO)C3 [Example 38, (7S)—N-(2-Hydroxyethyl)-4-[(6-methoxy-1H-indazol-5-yl)amino]-N-methyl-5,6,7,8-tetrahydro[1]benzothieno[2,3-d]pyrimidine-7-carboxamide]
